Source: patent publication EP0308559A2, “Cephalosporins, process for their preparation, pharmaceutical compositions containing them and intermediates” (BEECHAM GROUP PLC, priority 1987, dated 1989)
Counter-ions that a name gives are not always drawn.

Legend:
[1] = test system: Enterobacter cloacae P99; assay: Minimum Inhibitory Concentration (MIC) by serial dilution in agar; type: cell-based
Method: (§1) Minimum Inhibitory Concentration (MIC) values of compounds of the invention against Enterobacter cloacae P99 and Pseudomonas aeruginosa Charlier were determined by serial dilution in agar. The plates were inoculated with 10⁴ colony forming units and incubated overnight at 37°C. The MIC values recorded in Table 1 were the lowest concentration of antibiotic to inhibit growth. Comparative data for 7β-[2-(3,4-diacetoxyphenyl)-2-[4-ethyl-2,3-dioxopiperazin-1-yl)carbonylamino]-acetamido]-7α-formamido-3-[1-methyl-1H-tetrazol-5-yl) thiomethyl]ceph-3-em-4-carboxylic acid, sodium salt (compound A), disclosed in European Patent Application No.82303821.1 (Publication Number 0 071 395; Example 57), are also given.

[2] = test system: Pseudomonas aeruginosa Charlier; assay: as above; type: cell-based; conditions: 10⁴ colony forming units, incubated overnight at 37°C, lowest concentration to inhibit growth
Method: as §1

Row | SMILES | MIC [1] [µg/mL] | MIC [2] [µg/mL]
1 | CCN1CCN(C(=O)NC(C(=O)N[C@]2(NC=O)C(=O)N3C(C(=O)O)=C(CSc4nnnn4C)CS[C@@H]32)c2ccc(OC(C)=O)c(OC(C)=O)c2)C(=O)C1=O (stereo partly drawn) [Compound A, 7β-[2-(3,4-diacetoxyphenyl)-2-[4-ethyl-2,3-dioxopiperazin-1-yl)carbonylamino]acetamido]-7α-formamido-3-[1-methyl-1H-tetrazol-5-yl) thiomethyl]ceph-3-em-4-carboxylic acid, sodium salt, reference compound] | 8 | 4
2 | CCN1CCN(C(=O)N[C@@H](C(=O)N[C@]2(NC=O)C(=O)N3C(C(=O)O)=C(CSc4nnnn4N)CS[C@@H]32)c2ccc(OC(C)=O)c(OC(C)=O)c2)C(=O)C1=O [Example 1, Sodium 3-[(1-Amino-1H-tetrazol-5-yl)thiomethyl]-7β-[D-2-(3,4-diacetoxyphenyl)-2-[(4-ethyl-2,3-dioxopiperazin-1-yl)carbonylamino]acetamido]-7α-formamidoceph-3-em-4-carboxylate] | 2 | 2
3 | CCN1CCN(C(=O)N[C@@H](C(=O)N[C@]2(NC=O)C(=O)N3C(C(=O)O)=C(CSc4nnnn4N)CS[C@@H]32)c2ccc(O)c(O)c2)C(=O)C1=O [Example 2, Sodium 3-[(1-Amino-1H-tetrazol-5-yl)thiomethyl]-7β-[D-2-(3,4-dihydroxyphenyl)-2-[(4-ethyl-2,3-dioxopiperazin-1-yl)carbonylamino]acetamido]-7α-formamidoceph-3-em-4-carboxylate] | 4 | 2
